Where two headings read alike, the source gives them in different places.
Legend:
[1] = target: T1, membrane-bound E. coli F1F0-ATPase (Escherichia coli, UniProt P0ABB4); test: biochemical; parameters: endogenous in cells; host or cells: Escherichia coli culture; crude membrane pellet after EDTA, freeze-thaw, sonication and centrifugation; species or system Escherichia coli (ATCC 25922)
Method: The supernatant is then removed.
Assays for each phosphate concentration were done in triplicate.
All tests were performed in triplicate.
IC50 values were determined using the PRISM® 5.04 (GraphPad software, San Diego, CA, USA) software, from a dose-response curve established by drawing the percentage of enzymatic activity (%) at different concentrations of the inhibitor expressed in terms of a log (inhibitor) (μM).
Different volumes of the stock solution of venom prepared in the buffer tris-HCl (pH = 8.5; 50 mM) are added to the reaction medium containing the transmembrane enzyme followed by ATP at 100 μM. […] The reaction is then stopped by the addition of 1% SDS (v/v). […] All assays were performed in triplicate.
Different volumes of the stock solution of phospholipase A2 are added to the reaction medium containing the isolated membrane-bound enzyme followed by ATP at 100 μM.
The effect of melittin on the membrane-bound F1F0-ATPase is studied as described in Section 4.7. Different volumes of the stock solution of melittin are added to the reaction medium containing the enzyme followed by ATP at 100 μM. […] The reaction is then stopped using a solution of 1% SDS (v/v). […] IC50 values were obtained from the dose-response curve using PRISM® 5.04 software. All assays were done in triplicate.

[2] = target: T1, membrane-bound E. coli F1F0-ATPase; parameters: endogenous in cells; host or cells: Escherichia coli culture; crude membrane pellet after EDTA, freeze-thaw, sonication and centrifugation; details: literature value, ref [7]; cited from earlier work
Source text: Figure 2 (a) Dose-response curve representing the enzymatic activity (%) of E. coli F1F0-ATPase as a function of the log of the concentration of thymoquinone, quercetin and melittin, respectively. Error bars show the standard deviation obtained from experiments done in triplicate; (b) Comparison between the IC50 values of the reference inhibitors obtained by the developed method and from the literature. […] Good repeatabilities were obtained with relative standard deviations (RSD) below 6% and R^2 > 0.99. Likewise, melittin is found to be a strong potent inhibitor of E. coli F1F0-ATPase with its low IC50 value in the micromolar range.

[3] = target: T1, membrane-bound E. coli F1F0-ATPase; test: Combination effect of PLA2 and melittin on membrane-bound E. coli F1F0-ATPase; details: read-out: remaining enzymatic activity, melittin alone

Compound	IC50 ([1]; read-out: IC50) [µM]	IC50 [2] [µM]	IC50 [1] [µM]	maximum inhibition ([1]; plateau of concentration curve, ATP 100 μM, 40 min, 37 °C, pH 8.5, triplicate)	remaining activity at 9 µM [3] [%]
CC1=CC(=O)C(C(C)C)=CC1=O [Thymoquinone, thymoquinone]	57.5 ± 2.99	–	–	–	–
O=c1c(O)c(-c2ccc(O)c(O)c2)oc2cc(O)cc(O)c12 [Quercetin, quercetin]	30 ± 1.5	33	–	–	–
CC[C@H](C)[C@H](NC(=O)CN)C(=O)NCC(=O)N[C@@H](C)C(=O)N[C@H](C(=O)N[C@@H](CC(C)C)C(=O)N[C@@H](CCCCN)C(=O)N[C@H](C(=O)N[C@@H](CC(C)C)C(=O)N[C@H](C(=O)N[C@H](C(=O)NCC(=O)N[C@@H](CC(C)C)C(=O)N1CCC[C@H]1C(=O)N[C@@H](C)C(=O)N[C@@H](CC(C)C)C(=O)N[C@H](C(=O)N[C@@H](CO)C(=O)N[C@@H](Cc1c[nH]c2ccccc12)C(=O)N[C@H](C(=O)N[C@@H](CCCCN)C(=O)N[C@@H](CCCNC(=N)N)C(=O)N[C@@H](CCCCN)C(=O)N[C@@H](CCCNC(=N)N)C(=O)N[C@@H](CCC(N)=O)C(=O)N[C@@H](CCC(N)=O)C(N)=O)[C@@H](C)CC)[C@@H](C)CC)[C@@H](C)O)[C@@H](C)O)C(C)C)C(C)C [melittin]	–	–	9.03 ± 0.27	about 80%	51.7

— PMC7699247 (Antibiotics, 2020)
